Values quoted from earlier work as cited in PMC10646941 (Chemical Science, 2023).

Target: SARS-CoV-2 3C-Like Protease

CC(C)(C)[C@H](NC(=O)C(F)(F)F)C(=O)N1C[C@H]2[C@@H]([C@H]1C(=O)N[C@H](C#N)C[C@@H]1CCNC1=O)C2(C)C [nirmatrelvir]
kinact/Ki: 55000 M⁻¹ s⁻¹
